Test results from article PMC8962522, “Direct interaction of TrkA/CD44v3 is essential for NGF-promoted aggressiveness of breast cancer cells” (Journal of Experimental & Clinical Cancer Research : CR, 2022).

What was measured:
[1] = tested on: TrkA-His tagged extracellular domain protein (Ala 34-Gly423); experiment: MST binding of CD44v3 mimetic peptides to TrkA; conditions: TrkA-His 200 nM labelled with RED-Tris-NTA, PBS-T
Procedure: MST was conducted using an NT.115 A Pico MST instrument (Nano Temper Technologies GmbH) equipped with red and blue filter sets. The TrkA-His tagged extracellular domain protein (Ala 34-Gly423) (9966-TK-050; R&D Systems, United Kingdom), diluted to 200 nM in PBS-T buffer (supplied by the vendor), was labeled using a Monolith His-Tag Labeling Kit with RED-Tris-NTA (Nano Temper). The RED-Tris-NTA dye was diluted in PBS-T to 100 nM. The mix was incubated at RT in the dark for 30 min. Next, an extract expressing CD44v3-labeled protein (CD44v3-His) and ligand and/or TrkA was mixed at a 1:1 ratio and incubated at RT in the dark for 15 min. For the binding check, peptides and TrkA-His were used. Capillaries were filled individually and loaded into the instrument. The data were acquired using high MST power and 100% LED. The data were analyzed using MO Control Software (Nano Temper).
Fig. 2 The C-terminal region of CD44v3 and the His112 residue of TrkA are involved in the CD44v3/TrkA interaction. TrkA/CD44v3 complex association was detected by the proximity ligation assay (PLA) in wild-type TrkA- or TrkA_H112A- and CD44v3-expressing COS-7 cells. Proximity ligation assays were performed after 0, 5 and 30 min of NGF treatment (100 ng/ml). Representative images of signals detected by PLA (A) and their quantification (B). Sequence of CD44 exon variant 3 and deletion mutant Δ3 or Δ4 (C). TrkA/CD44v3 complex association was detected by PLA in wild-type TrkA and CD44v3 wild type or CD44v3 deleted mutant Δ3 or Δ4 expressing COS-7 (D, E). Sequence of CD44v3 mimetic peptides (F) and structure (G). TrkA binding to CD44v3 mimetic peptides by microscale thermophoresis (H) and effects of CD44v3 mimetic peptides 3 (RDRHLSFSGSG) and 4 ([…]) on TrkA/CD44v3 complex formation (I, J). Quantification of PLA was performed using ImageJ software (30 fields per condition of three different experiments). Statistical analyses were performed using one-way ANOVA followed by Bonferroni’s posttest.
To block the TrkA-CD44v3 association, 4 mimetic peptides of CD44v3 were designed corresponding to zone 1 [(K) STSSNTISAG], zone 2 (WEPNEENEDE), zone 3 (RDRHLSFSGSG) and zone 4 (IDDDEDFISST) (Fig. 2F & G). The binding capacities of the CD44v3 mimetic peptides to TrkA were then measured by MST (Fig. 2H). […] To confirm mimetic peptide 4 binding, we assessed its ability to bind TrkA using nanoscale differential scanning fluorimetry (nanoDSF; Supplementary Fig. 6A & B).

MDA-MB-468 cells = experiment: Transwell invasion assay through collagen I, MDA-MB-468; assay type: cell-based; conditions: collagen 1 Transwell, 16 h after treatment; "these effects" = decrease in basal and NGF-induced invasion
Procedure: Transwell invasion assays were performed to assess cancer cell invasion in a Transwell chamber containing a collagen I-coated membrane (12-wells with inserts and […] pore size membranes; Corning, Life Sciences). A total of 1 × 10^6 starved cells (0.1% in SVF medium) were plated in the top chamber and incubated for 10 min before treatment with a peptide (50 ng/mL for 30 min); NGF was added to the lower chamber. […] and stained with Hoechst 33258 (1 mg/mL) for 30 min, and the cells that invaded the lower surface through the pores of the inserts were automatically counted under an inverted microscope with ImageJ software (with an in-house-developed plug-in).
Supplementary file 13046_2022_2314_MOESM3_ESM.pdf: Additional file 3: Supplementary Figure 1. Validation of the ectopic expression of CD44 and/or TrkA in COS-7 cells. The expression of all CD44 isoforms (A), CD44 variant 3 (B), CD44 variant 6 (C) and TrkA ([…]; D) was evaluated by RT–qPCR (normalized using PUM-1). No expression of CD44, CD44 variants [3 or 6] or TrkA was detected in COS-7 cells (A-D) compared with that in cells transfected with the expression plasmid carrying each protein. […] Quantification of the PLA results was performed using ImageJ software (30 randomly chosen fields per condition of three different experiments). […] CD44v3 and CD44v6 levels at the plasma membrane were assessed by flow cytometry (A-D). […]

Sequence: IDDDEDFISST [Peptide 4, mimetic peptide 4 (…) corresponding to the C-terminal region of CD44v3]
- binding to TrkA by MST (in words) [1]: could bind TrkA
- effect on invasion of MDA-MB-468 cells (MDA-MB-468 cells): These effects on invasion were also observed in the MDA-MB-468 triple-negative breast cancer cell line
